Data: patent publication US20170246137A1, “SULFESTROL FOR TREATING CANCER” (CHAMAELEO PHARMA BVBA, priority 2012, published 2017)
Where “and” joins values, the source holds several entries; their conditions need not be identical. Identical values can stand only once.

How the values were obtained:
[1] = orally administered, daily doses of 2 mg; cited from earlier work
[2] = system: platelet-rich plasma (PRP); assay: Platelet-aggregation-inducing effects in platelet-rich plasma, absorbance 630 nm; assay type: cell-based; details: 7 minutes, human PRP
Description: Blood necessary to generate PRP was obtained from 4 healthy human volunteers. 100 ml of fresh venous blood from each donor was isolated directly into tubes containing 1/10th volume of the anti-coagulant Tri-Sodium Citrate (3.2% w/v). The blood and anti-coagulant were immediately mixed and the final concentration of Tri-Sodium Citrate was 0.0106 M.
PRP was prepared by centrifugation of anti-coagulated blood at 180 g for 10 minutes at room temperature. The cloudy yellow supernatant containing the platelets was removed and placed into a clean polypropylene tube. Platelet-poor plasma (PPP) was prepared by centrifuging the remaining sample at 1,200 g for 20 minutes at room temperature. The PRP was adjusted to a suitable platelet count and absorbance at 630 nm by addition of PPP.
All three compounds were dissolved in 100% DMSO to give a stock concentration of 60 mM. […] […] 100 nM gamma thrombin (Cambridge bioscience) was used as control for platelet aggregation. 90 μl aliquots of PRP were added to 96 wells plates. A baseline absorbance reading was taken at 630 nm. 5 μl of the compounds and gamma thrombin control was added to the appropriate PRP.
The plates were incubated at room temperature for 7 minutes on a plate shaker with continuous shaking. A second A630 nm reading was made after the 7 minutes incubation to measure any platelet aggregation induced by the compounds.

[3] = In vitro metabolism in human liver microsomes (STS and CYP); assay type: in vitro ADME; parameters: Clint: unit not given here
Description: In vitro metabolism pathways of DES, Mono-Sulfestrol and Di-Sulfestrol in human liver microsomes were investigated.
Special emphasis was put on desulfatation by steroid sulfatase (STS) and oxidation by cytochrome P (CYP) metabolism. Liver microsomes (Celsis in vitro Technologies) were used at a concentration of 0.5 mg/ml in a volume of 600 μl phosphate buffer pH 7.4. Estrone-3-sulfate was used as positive control.
5 μM of each compound (test and control compound) was added to the liver microsomes and the mixture was incubated at 37° C. for 5, 10, 20, 30, 50, 90 and 120 minutes. After incubation, aliquots of 45 μl were taken which were subsequently quenched with 150 μl ice cold methanol. Aliquots were incubated ≧1 h at −20° C. for protein precipitation. After precipitation, samples were centrifuged and remaining supernatant was used for analysis with LC-MS/MS. Half life of the compounds, speed of metabolism or intrinsic clearance (Clint), and contribution to metabolism of CYP and STS metabolism were calculated based on the data obtained at each time point.

[4] = Concentration of Mono-Sulfestrol in pooled plasma samples, LC-UV quantification; assay type: in vivo, male Sprague Dawley rats; details: 10 mg/kg of the labelled compound, rat, pooled 0.5-8 hrs
Description: The concentration of Mono-Sulfestrol in the pooled samples described in Example 6 was quantified by LC-UV quantification.
A calibration standard solution was prepared as 10,000 ng/mL by adding an appropriate amount of Mono-Sulfestrol into 20% acetonitrile/0.1% formic acid in water. The peak area of the standard solution and the sample were measured with the wavelength set at 200 to 360 nm. The concentration levels of Mono-Sulfestrol were estimated using peak area (Area) of the standard and unknown samples and concentration of the standard (Concstd) by the following equation:
Areaunknown/Areastd=Concunknown/Concstd
Concunknown=Concstd·(Areaunknown/Areastd)

[5] = Estrogenic activity: body weight and plasma cholesterol levels; assay type: in vivo, male Sprague-Dawley rats; details: for Mean bodyweight: in g (unit assumed)
Description: Estrogenic activity was determined by measuring body weight and plasma cholesterol levels.
Each animal was dosed three times a day with vehicle or test compound (1st dose 7:30-8:00, 2nd dose 12:30-13:00, 3rd dose 17:00-17:30) for 14 consecutive days.
After 14 days treatment, blood was collected from the animals via cardiac puncture 4 hrs past final dosing to analyze plasma cholesterol levels. The blood was immediately transferred to a tube containing 0.5M EDTA anticoagulant. It was mixed gently and centrifuged at 1000×g at 4° C. for 15 min. Plasma was aspirated from the centrifuged blood samples, quick frozen on dry ice and stored at −80° C. for later use.
Plasma cholesterol levels were determined using a commercial ELISA kit obtained from NovaTeinBio (BG-RAT11262). Standard protocol accompanied by the kit was used without any adjustments.

[6] = system: MDA-MB-231 Dlux; assay: Orthotopic spontaneous metastasis breast model, whole body bioluminescence; assay type: in vivo, female MF-1 nude mice; details: for total flux, whole body bioluminescence: mono-Sulfestrol 60 mg/kg, di-Sulfestrol 80 mg/kg orally once a day
Description: Female MF-1 nude mice (HsdOla:MF1-Foxn1nu, Harlan, UK) were divided into 3 groups of each 8 mice (n=8):
The mice were 5-6 weeks old at the start of the study and were maintained in sterile isolators within a barriered unit illuminated by fluorescent lights set to give a 12 hour light-dark cycle (on 07.00, off 19.00). The room was air-conditioned to maintain an air temperature range of 23±2° C. Sterile irradiated 2019 rodent diet (Harlan Teklad UK, product code Q219DJ1R2) and autoclaved water were offered ad libitum.
The MDA-MB-231 Dlux cells were maintained in vitro in RPMI containing 2 mM L-Glut and (Life Technologies, UK) and 10% (v/v) heat-inactivated foetal bovine serum (Sigma, Poole, UK) at 37° C. in 5% CO2 and humidified conditions. Cells were treated with Zeocin once a week at 0.4 mg/mL.
On the day of initiation cells were harvested from semi-confluent monolayers with 0.05% Trypsin-EDTA, washed twice in the culture medium and counted. Cells with viability of >90% were re-suspended, for in vivo administration, in 1:1 PBS:Matrigel at 2×10^6 cells/0.1 mL. Prior to injection, the cell suspension was homogenized and 0.1 mL of cell suspension was drawn into a 1 mL syringe. The cell suspension was then injected orthotopically into the lower left-side 2nd mammary fat pad of each mouse under anaesthesia (Medetomidine/Ketamine).
On day 7 after initiation and every six days thereafter, the mice were injected (s.c.) with 150 mg/kg D-Luciferin. 10 minutes following administration of D-Luciferin mice were anaesthetised and 15 minutes after administration they were placed into an imaging chamber (Spectrum CT) and imaged for luminescence (ventral view; whole body and shielding of the primary tumor). Images were captured and processed by Living Image 4.3.1 software (Caliper LS, US.).
On day 7 after initiation mice were assigned to groups such that there was a uniform mean bioluminescent signal between the groups.

[7] = cited from earlier work
[8] = cited from earlier work; remark: listed apart in the source
[9] = Metabolites in plasma after oral and intravenous administration, LC-MS/MS; details: 10 mg/kg oral and intravenous
Description: Metabolites were identified after oral and intravenous administration of the compounds.
Each group consisted of three rats, giving a total of 12 animals. Compounds were dosed at 10 mg/kg for both oral and intravenous administration. A 0.9% saline solution was used as vehicle for oral and intravenous administration.
Prior to intravenous administration, the solution was filtered through a 0.22 μM filter. Oral dosing was performed using a oral gavage. Tail vein injection was used for intravenous administration.
At 0.5, 1, 2, 4, 6 and 8 hrs post administration, 0.25 ml blood was drawn from the animals and immediately transferred to prechilled microcentrifuge tubes containing 4 μl of K2-EDTA to prevent coagulation. Plasma was obtained by centrifugation of the plasma and stored at −70° C. until analysis. Plasma drawn from each individual rat was pooled according to the following schedule:
The pooled samples were analyzed using LC-MS/MS and the relative percentage of each metabolite in the pooled sample was measured on the basis of the mass spectrometric peak areas of the parent and its metabolites in the plasma.

[10] = nothing added (STS active, CYP inactive), 5 μM

For stilbestrol sulfate, the “estrogenic activity relative to stilbestrol” value [1] is listed as 44%.
With “4,4′-(hex-3-ene-3,4-diyl)bis(4,1-phenylene) disulfate [Di-Sulfestrol]” the “Absorbance (630 nm)” value ([2]; 2.3 μM, high absorbance = low aggregation) was 0.260 ± 0.030, the “Absorbance (630 nm)” value ([2]; 4.7 μM) was 0.253 ± 0.024 and the “Absorbance (630 nm)” value ([2]; 9.4 μM) was 0.266 ± 0.039. The “Absorbance (630 nm)” value ([2]; 18.75 μM) was 0.254 ± 0.025, the “Absorbance (630 nm)” value ([2]; 37.5 μM) was 0.260 ± 0.027 and the “Absorbance (630 nm)” value ([2]; 75 μM) was 0.264 ± 0.031. The “Absorbance (630 nm)” value ([2]; 150 μM) was 0.266 ± 0.034, the “metabolism pathway in human liver microsomes (in words)” value [3] was “only metabolized by STS enzymes” and the Clint [3, 10] was 31. The Contribution to metabolism [3, 10] was 85%, the Half-life [3, 10] was 45 min and the “Mono-Sulfestrol concentration in pooled plasma sample” value ([4]; intravenous) was 735.9 ng/ml and 1.7 μM. For the same substance, the “Mono-Sulfestrol concentration in pooled plasma sample” value ([4]; oral) was 261.3 ng/ml and 0.6 μM, the Mean bodyweight ([5]; Day 0, DES 1.5 mg/kg per day, Di-Sulfestrol 3 mg/kg per day, three doses a day) was 387 ± 6.9 and the Mean bodyweight ([5]; Day 2) was 381 ± 8.3. It also gave a Mean bodyweight ([5]; Day 4) of 368 ± 9.5, a Mean bodyweight ([5]; Day 6) of 357 ± 9.2 and a Mean bodyweight ([5]; Day 8) of 348 ± 8.5. For the same substance, the Mean bodyweight ([5]; Day 10) was 344 ± 7.2, the Mean bodyweight ([5]; Day 12) was 341 ± 7.5 and the Mean bodyweight ([5]; Day 14) was 333 ± 6.67. For the same substance, the “Cholesterol (plasma)” value ([5]; after 14 days treatment, 4 hrs past final dosing, DES 1.5 mg/kg per day, Di-Sulfestrol 3 mg/kg per day) was 12.1 ± 0.799 nmol/L, the “estrogenic activity in rats (in words)” value ([5]; lowering body weight and cholesterol levels) was “show estrogenic activity” and the “total flux, whole body bioluminescence” value ([6]; Day 7 (before start of treatment)) was 1.73 10^9 photons/second. The “total flux, whole body bioluminescence” value ([6]; Day 13) was 8.84 10^9 photons/second, the “total flux, whole body bioluminescence” value ([6]; Day 19) was 16.2 10^9 photons/second and the “effect on tumor progression (in words)” value ([6]; oral, MDA-MB-231 Dlux in mice) was “tumor progression inhibiting effect”. The “tolerance (in words)” value ([7]; mice, intravenously injectable) was “well tolerated in mice”, the “estrogenic activity (in words)” value ([7]; mouse, in vivo) was “has estrogenic activity” and the “water solubility (in words)” value [8] was “water soluble”. The “metabolic fate in rat plasma (in words)” value [9] was “mostly converted into Mono-Sulfestrol”.
